Assay results taken from patent publication US9512120B2, “Microbicidally active imidazopyridine derivatives” (Syngenta Participations AG, priority 2013, dated 2016).

Assays:
[1] = tested on: Puccinia recondita f. sp. Tritici; assay: Puccinia recondita f. sp. tritici / wheat / leaf disc preventative (brown rust); type: in vivo; conditions: foliar, wheat leaf segments cv Kanzler, inoculated 1 day after application, assessed 7-9 days after application, read-out: control of Puccinia recondita f. sp. Tritici (percent disease control compared to untreated)
Procedure, shortened: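 Leaf segments of wheat cv Kanzler on agar were sprayed with formulated compound at 200 ppm and inoculated with spores 1 day later. Incubation was at 19° C, 75% relative humidity and 12/12 h light/dark. Activity was scored 7-9 days after application as percent disease control versus untreated.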

[2] = tested on: Phaeosphaeria nodorum (Septoria nodorum); assay: Phaeosphaeria nodorum (Septoria nodorum) / wheat / leaf disc preventative (glume blotch); type: in vivo; conditions: Parastagonospora nodorum, foliar, wheat leaf segments cv Kanzler, inoculated 2 days after application, assessed 5-7 days after application, read-out: control of Phaeosphaeria nodorum (percent disease control compared to untreated)
Procedure, shortened: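 Wheat leaf segments (cv Kanzler) on agar sprayed with compound at 200 ppm, inoculated with spores 2 days later. Incubated at 20° C., 75% relative humidity, 12/12 h light/dark; percent disease control versus untreated scored 5-7 days after application.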

Pyrenophora teres = Pyrenophora teres / barley / leaf disc preventative (net blotch); type: in vivo; conditions: foliar, barley leaf segments cv Hasso, inoculated two days after application, assessed 5-7 days after application, read-out: control of Pyrenophora teres (disease control compared to untreated)
Procedure, shortened: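 Barley cv Hasso leaf segments on agar sprayed with compound at 200 ppm, inoculated with spores two days later. Kept at 20 °C, 65% RH, 12/12 h light; disease control versus untreated scored 5-7 days after application.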

[3] = tested on: Botryotinia fuckeliana (Botrytis cinerea); assay: Botryotinia fuckeliana (Botrytis cinerea) / liquid culture (gray mould); type: cell-based; conditions: Vogels broth, 24° C., 3-4 days after application, read-out: control of Botryotinia fuckeliana (inhibition of growth, photometric)
Procedure, shortened: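 Botrytis cinerea conidia in Vogels broth were added to test compound applied from DMSO at 200 ppm. Incubation at 24 °C; growth inhibition read photometrically 3-4 days after application.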

[4] = tested on: Glomerella lagenarium (Colletotrichum lagenarium); assay: Glomerella lagenarium (Colletotrichum lagenarium) / liquid culture (anthracnose); type: cell-based; conditions: Colletotrichum orbiculare, PDB, 24° C., 3-4 days after application, read-out: control of Glomerella lagenarium (inhibition of growth, photometric)
Procedure, shortened: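 Cryopreserved conidia suspended in potato dextrose broth were added to compound in DMSO applied at 200 ppm. Plates incubated at 24° C; growth inhibition read photometrically 3-4 days after application.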

[5] = tested on: Mycosphaerella arachidis (Cercospora arachidicola); assay: Mycosphaerella arachidis (Cercospora arachidicola) / liquid culture (early leaf spot); type: cell-based; conditions: PDB, 24° C., 4-5 days after application, read-out: control of Mycosphaerella arachidis (inhibition of growth, photometric)
Procedure, shortened: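 Conidia suspended in potato dextrose broth and added to test compound from DMSO solution at 200 ppm. Incubated at 24 °C; growth inhibition read photometrically 4-5 days after application.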

[6] = tested on: Mycosphaerella graminicola (Septoria tritici); assay: Mycosphaerella graminicola (Septoria tritici) / liquid culture (Septoria blotch); type: cell-based; conditions: Zymoseptoria tritici, PDB, 24° C., 4-5 days after application, read-out: control of Mycosphaerella graminicola (inhibition of growth, photometric)
Procedure, shortened: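 Cryo-stored conidia in potato dextrose broth were added to compound in DMSO at 200 ppm in microtiter plates. Plates were incubated at 24 °C and growth inhibition was measured photometrically 4–5 days after application.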

[7] = tested on: Thanatephorus cucumeris (Rhizoctonia solani); assay: Thanatephorus cucumeris (Rhizoctonia solani) / liquid culture (foot rot, damping-off); type: cell-based; conditions: PDB, 24° C., 3-4 days after application, read-out: control of Thanatephorus cucumeris (inhibition of growth, photometric)
Procedure, shortened: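 Mycelial fragments in potato dextrose broth exposed to test compounds at 200 ppm (from DMSO solution), incubated at 24° C. Growth inhibition read photometrically 3-4 days after application.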

[8] = tested on: Monographella nivalis (Microdochium nivale); assay: Monographella nivalis (Microdochium nivale) / liquid culture (foot rot cereals); type: cell-based; conditions: PDB, 24° C., 4-5 days after application, read-out: control of Monographella nivalis (inhibition of growth, photometric)
Procedure, shortened: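 Cryostored conidia in potato dextrose broth were added to test compound dispensed from DMSO at 200 ppm. Plates were kept at 24° C, and growth inhibition was read photometrically 4-5 days after application.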

Pythium ultimum = Pythium ultimum / liquid culture (seedling damping off); type: cell-based; conditions: Globisporangium ultimum, potato dextrose broth, 24° C., 2-3 days after application, read-out: control of Pythium ultimum (inhibition of growth, photometric)
Method: Pythium ultimum/Liquid Culture (Seedling Damping Off) Mycelia fragments and oospores of a newly grown liquid culture of the fungus were directly mixed into nutrient broth (potato dextrose broth). After placing a DMSO solution of test compound into a 96-well format microtiter plate at an application rate of 200 ppm, the nutrient broth containing the fungal mycelia/spore mixture was added. The test plates were incubated at 24° C. and the inhibition of growth was determined photometrically 2-3 days after application.

Sclerotinia sclerotiorum = Sclerotinia sclerotiorum liquid culture (cottony rot / white mold); type: cell-based; conditions: PDB, 24° C., 3-4 days after application, read-out: control of Sclerotinia sclerotiorum (inhibition of growth, photometric)
Procedure, shortened: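 Mycelia fragments of Sclerotinia sclerotiorum in potato dextrose broth were added to compound in DMSO. Cultures incubated at 24° C; growth inhibition determined photometrically 3-4 days after application.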

Plasmopara viticola = Plasmopara viticola / grape / leaf disc preventative; type: in vivo; conditions: foliar, grape vine leaf disks, inoculated 1 day after application, assessed 6-8 days after application, read-out: control of Plasmopara viticola (percent disease control compared to untreated)
Gaeumannomyces graminis = Gaeumannomyces graminis / liquid culture (take-all of cereals); type: cell-based; conditions: PDB, 24° C., 4-5 days after application, read-out: control of Gaeumannomyces graminis (inhibition of growth, photometric)
Procedure, shortened: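 Mycelial fragments in potato dextrose broth were exposed to compound from DMSO at 200 ppm in microtiter plates. Incubation at 24 °C; growth inhibition read photometrically 4-5 days after application.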

[9] = tested on: Blumeria graminis f. Sp. Tritici (Erysiphe graminis f. Sp. Tritici); assay: Blumeria graminis f. sp. tritici / wheat / leaf disc preventative (powdery mildew on wheat); type: in vivo; conditions: foliar, wheat leaf segments cv. Kanzler, inoculated 1 day after application, assessed 6-8 days after application, read-out: control of Blumeria graminis (percent disease control compared to untreated)
Method: Blumeria graminis f. Sp. Tritici (Erysiphe graminis f. Sp. Tritici)/Wheat/Leaf Disc Preventative (Powdery Mildew on Wheat):
Wheat leaf segments cv. Kanzler were placed on agar in a 24-well plate and sprayed with the formulated test compound diluted in water at an application rate of 200 ppm. The leaf disks were inoculated by shaking powdery mildew infected plants above the test plates 1 day after application. The inoculated leaf disks were incubated at 20° C. and 60% relative humidity under a light regime of 24 h darkness followed by 12 h/12 h (dark/light) in a climate chamber and the activity of a compound was assessed as percent disease control compared to untreated when an appropriate level of disease damage appears on untreated check leaf segments (6-8 days after application). The following compounds gave at least 80% control of Blumeria graminis at 200 ppm when compared to untreated control leaf disks under the same conditions, which show extensive disease development: 2, 13, 23, 50, 59, 61, 67, 75, 85, 86, 89, 90, 93, 102, 103, 107, 134, 136, 137, 138, 139, 141, 145, 151, 153, 154, 163, 173, 174

SMILES	pest or weed control at 200 ppm [1] [%]	pest or weed control at 200 ppm [2] [%]	pest or weed control at 200 ppm (Pyrenophora teres) [%]	inhibition at 20 ppm [3] [%]	inhibition at 20 ppm [4] [%]	inhibition at 20 ppm [5] [%]	inhibition at 20 ppm [6] [%]	inhibition at 20 ppm [7] [%]	inhibition at 20 ppm [8] [%]	inhibition at 20 ppm (Pythium ultimum) [%]	inhibition at 20 ppm (Sclerotinia sclerotiorum) [%]	pest or weed control at 200 ppm (Plasmopara viticola) [%]	inhibition at 20 ppm (Gaeumannomyces graminis) [%]	pest or weed control at 200 ppm [9] [%]	melting point [°C]
CCn1c(-n2ncnc2N)nc2cncc(-c3ccccc3Cl)c21 [Compound 33, 2-[7-(2-chlorophenyl)-1-ethylimidazo[4,5-c]pyridin-2-yl]-1,2,4-triazol-3-amine]	≥ 80	≥ 80	≥ 80	≥ 80	≥ 80	≥ 80	≥ 80	≥ 80	≥ 80	≥ 80	≥ 80	–	–	–	–
CCn1c(-n2ncnc2N)nc2cncc(C(C)=NOCc3ccccc3F)c21 [Compound 137]	≥ 80	≥ 80	≥ 80	≥ 80	≥ 80	–	≥ 80	≥ 80	≥ 80	–	≥ 80	≥ 80	≥ 80	≥ 80	159 to 171
CCCc1cncc2nc(-n3ncnc3N)n(CCC)c12 [Compound 190, 2-(1,7-dipropylimidazo[4,5-c]pyridin-2-yl)-1,2,4-triazol-3-amine]	≥ 80	≥ 80	≥ 80	≥ 80	–	–	≥ 80	≥ 80	≥ 80	≥ 80	≥ 80	–	≥ 80	–	–
CCn1c(-n2ncnc2N)nc2cncc(C(C)=NOCc3c(F)c(F)c(F)c(F)c3F)c21 [Compound 163]	≥ 80	–	≥ 80	≥ 80	≥ 80	≥ 80	≥ 80	≥ 80	–	–	–	≥ 80	–	≥ 80	–
CCn1c(-n2ncnc2N)nc2cncc(-c3cc(F)ccc3F)c21 [Compound 39, 2-[7-(2,5-difluorophenyl)-1-ethylimidazo[4,5-c]pyridin-2-yl]-1,2,4-triazol-3-amine]	–	≥ 80	≥ 80	≥ 80	≥ 80	≥ 80	≥ 80	≥ 80	≥ 80	≥ 80	≥ 80	–	≥ 80	–	–
CCn1c(-n2ncnc2N)nc2cncc(C(C)=NOCc3ccc(Cl)cc3)c21 [Compound 145]	≥ 80	≥ 80	≥ 80	≥ 80	≥ 80	–	≥ 80	≥ 80	≥ 80	–	≥ 80	≥ 80	–	≥ 80	–
CCn1c(-n2ncnc2N)nc2cncc(-c3ccoc3)c21 [Compound 55, 2-[1-ethyl-7-(furan-3-yl)imidazo[4,5-c]pyridin-2-yl]-1,2,4-triazol-3-amine]	≥ 80	≥ 80	≥ 80	≥ 80	≥ 80	≥ 80	≥ 80	≥ 80	≥ 80	≥ 80	–	–	≥ 80	–	–
CCn1c(-n2ncnc2N)nc2cncc(C(C)=NOCc3ccc(C)cc3)c21 [Compound 139]	≥ 80	–	≥ 80	≥ 80	≥ 80	≥ 80	≥ 80	≥ 80	≥ 80	–	≥ 80	≥ 80	≥ 80	≥ 80	–
CCn1c(-n2ncnc2N)nc2cncc(/C(C)=N/OC/C=C(\C)Cl)c21 [Compound 154, 2-[7-[(E)-N-[(E)-3-chlorobut-2-enoxy]-C-methyl-carbonimidoyl]-1-ethyl-imidazo[4,5-c]pyridin-2-yl]-1,2,4-triazol-3-amine]	≥ 80	–	≥ 80	≥ 80	≥ 80	–	≥ 80	≥ 80	–	–	≥ 80	≥ 80	–	≥ 80	–
C=C(Cl)CO/N=C(/C)c1cncc2nc(-n3ncnc3N)n(CC)c12 [Compound 151]	≥ 80	≥ 80	≥ 80	≥ 80	≥ 80	–	≥ 80	≥ 80	≥ 80	–	≥ 80	≥ 80	–	≥ 80	–
CCCc1cncc2nc(-n3ncnc3N)n(CC)c12 [Compound 73, 2-(1-ethyl-7-propylimidazo[4,5-c]pyridin-2-yl)-1,2,4-triazol-3-amine]	≥ 80	≥ 80	≥ 80	≥ 80	–	≥ 80	≥ 80	≥ 80	≥ 80	≥ 80	≥ 80	–	≥ 80	–	–
